Data set [1] has as its system LEW rats transplanted with DA livers. Nature of the data set: Allogeneic orthotopic liver transplant (OLT) model: survival, histology, sGOT. Format: in vivo, rat. Here is the method: Ad-HO-1 transduction in OLT model. Male Dark-Agouti (DA; RT1^3) and Lewis (LEW; RT1′) rats of 10-16 weeks of age were purchased from Harlan Sprague Dawley, Inc. (San Diego, Calif.), and maintained under conditions approved by the UCLA Chancellor's Animal Research Committee (CARC). All animals were housed in microisolator cages in a virus free facility and fed laboratory chow ad libitum. Orthotopic liver transplants were performed between DA donors and LEW rat recipients, as described previously. Amersi et al., supra; Kato et al., Am. J. Transplant 1:121-28 (2001). Ex-vivo gene transfer into liver grafts was performed during cold preservation (4° C.) via perfusion of the portal vein with 2 ml of cold lactated Ringer's solution containing 5×10^10 pfu (plaque-forming unit) of Ad-HO-1. Control grafts were perfused with 5×10^10 pfu of Ad-β-gal. Animals were followed for survival. Separate groups of recipients were sacrificed at day 3, 7 and 10 post-transplant, OLTs were harvested for histological evaluation, whereas blood samples were collected for measurement of sGOT levels.
Methylene chloride treatment in OLT model To investigate whether CO represents a functional downstream HO-1 mediator in this system, methylene chloride was used as a carbon monoxide generator. As indicated above, the metabolism of MC is known to result in the exclusive production of CO2 and CO. Gargas et al., supra. LEW rats transplanted with DA livers were fed with methylene chloride (500 mg/kg) 2 hr prior to the transplant, followed by a 2-week post-transplant course (500 mg/kg/day). The blood CoHb levels in experimental animals were measured at day 0, 5, and 10. Animal survival was screened and OLTs were analyzed histologically.
Histology. Liver allografts were harvested at day 3, 7 and 10 post-transplant. The tissue was sliced into small pieces, preserved in 10% neutral-buffered formalin, cut into 5-μm section, and stained with hematoxylin and eosin (H&E) by standard methods.

The subject of data set [2] is Louvain rats immunized with collagen type II. Nature of the data set: Rat collagen-arthritis model. The data set is classed as in vivo. The arrangement: arthritic score / Arthritis Score / X-Ray Score: scale not given here. As to the method: To assess the therapeutic potential of methylene chloride as a carbon-monoxide generating compound in this disease model, female Louvain rats weighing between 120 and 150 g were injected intradermally with 0.5 mg native chicken collagen type II solubilized in 0.1M acetic acid and emulsified in incomplete Freund's adjuvant. At the onset of disease (around day 10) animals were divided into three groups. One group was treated daily with vehicle, the second and third groups with 100 mg/kg/day and 500 mg/kg/day methylene chloride (p.o.). Severity of disease was evaluated daily using a quantification method based on standardized levels of swelling and periarticular erythema. Animals were sacrificed on day 28. […] Compared to control animals these differences were statistically significant (p<0.02).
Iodoform and bromoform were compared with methylene chloride as alternative carbon monoxide generating compounds, using the rat collagen arthritis model described in Example 6 above. Briefly, arthritis was induced in a Lovain strain of rats by immunizing the animals with Collagen Type II in Incomplete Freund's Adjuvant. Digitized radiographs were obtained at the completion of the study on day 28. Pharmacokinetics were also determined and the synovial tissue from the inflamed joints of the treated animals was harvested on Day 16 or Day 28 post-immunization. Disease systems were generally evident by Day 10.

Data set [3] has as its system HO-1. Nature of the data set: ELISA for HO-1 protein expression in liver. The arrangement: species or system rat. Particulars: ZnPP = pretreatment then CO perfusion; CO = CO only. As to the method:
ELISA for HO-1 protein expression. Livers were homogenized on ice in a Tris-HCl lysis buffer (pH 7.4) containing 0.5% Triton X-100 and protease inhibitors. Flat-bottom microtiter 96-well plates (Nunc) were coated with 7 μg/ml anti-HO-1 mAb (OSA-111, Stressgen, Canada) in PBS for 18 h at room temperature. Unbound Ab was removed by washing (wash buffer: 0.05% Tween 20 in 50 mM phosphate buffer, pH 7.5) and remaining binding sites were blocked by incubation with a 5% BSA/PBS solution (1 h). Recombinant HO-1 (SPP-730) and tissue homogenate were diluted in assay diluent (0.5% BSA/0.05% Tween 20/PBS) and incubated in anti-HO-1 mAb coated wells for 1 h at room temperature. Subsequently, plates were washed three times with wash buffer and incubated with rabbit anti-HO-1 polyclonal antibody (SPA-895, Stressgen; diluted 1:1000 in assay diluent) for 30 min at room temperature. Bound rabbit IgG was detected with a donkey anti-rabbit (gG-HRP conjugate (711-035-152, Jackson Research Laboratories; diluted 1:8000 in assay diluent). Unbound secondary Ab was removed by washing and bound HRP was detected using 1 mg/ml OPD in substrate buffer (0.1% H2O2, 0.1 M citric acid, 0.2 M Na2HPO4, pH 5.0). The color reaction was stopped with 1 M HCl and the optical density at 490 nm was measured.
On the technique in general: An ELISA detects its analyte on a solid surface through an enzyme-linked reagent.

A further data set relates to rat liver. Nature of the data set: Histologic severity of I/R injury, Banff criteria. Details: species or system Sprague Dawley (SD) rats. Particulars: CO, scale 1-4. The source says:
Histology. Liver specimens were fixed in a 10% buffered formalin solution and embedded in paraffin. Sections were made at 4 μm and stained with H&E. The histologic severity of I/R injury was graded using International Banff Criteria (Int'l Banff Schema Conference Worksheet, The Third Int'l Banff Conference on Allograft Pathology, June 21-25 (1995)). Using these criteria, lobular disarray and ballooning changes are graded from 1-4, where no change is given a score of 1 and severe disarray or ballooning changes are given a score of 4.

Data set [4] has as its system HO-1. Kind of data set: Western blot of liver samples, HO-1. Particulars: 2 h after perfusion. The arrangement: species or system rat. As to the method: Western blots. Protein was extracted from liver samples with PBSTDS buffer (50 mM Tris, 150 mM NaCl, 0.1% SDS, 1% sodium deoxycholate, and 1% triton X-100, pH 7.2). Proteins (30 μg/sample) in SDS-loading buffer (50 mM Tris, pH 7.6, 10% glycerol, 1% SDS) were subjected to 12% SDS-polyacrylamide gel electrophoresis and transferred to nitrocellulose membrane (Bio-Rad, Hercules, Calif.). The gel was stained with coomassie blue to document equal protein loading. The membrane was blocked with 3% dry milk and 0.1% Tween 20 (USB, Cleveland, Ohio) in PBS and incubated with rabbit anti-rat HO-1 or iNOS polyclonal Abs (SangStat, Fremont, Calif.). Relative protein quantities were determined using a densitometer (Kodak Digital Science 1D Analysis Software, Rochester, N.Y.).

“Also recorded” adds a separate entry of the source.

In the case of `ClCCl` [methylene chloride], the “hepatic parenchyma viable / preserved” value in data set [1] (OLT by day 10 post-transplant) is reported as “more than 80%”. Moreover, the “histological grade of rejection” value in data set [1] (OLT by day 10 post-transplant) is given as “mild to moderate rejection”. Further, the “recipients/livers surviving >120 days” value in data set [1] (allogeneic OLT) is “two out of seven”. Further, the “mean survival time [MST]±SD” value in data set [1] (allogeneic OLT, vectors 5×10^10 pfu ex vivo perfusion, methylene chloride 500 mg/kg/day × 14 days) is > 47 ± 46 days. Also, the “rat recipients surviving >3 weeks” value in data set [1] (daily feedings with methylene chloride alone) was “ca. 50%”. The tolerability of regimen entry in data set [1] (methylene chloride 500 mg/kg/day × 14 days, OLT recipients) was “well tolerated and no side effects were noted; also recorded: well tolerated”. Moreover, in data set [1] (treatment protocol as in Table 1), the “Mean (days) recipient survival” value is given as >47 days. The “X-ray score (bone erosion)” value in data set [2] (methylene chloride 100 mg/kg/day) was 2.7+/−0.8; in data set [2] (methylene chloride 500 mg/kg/day), 1.8+/−0.7. Besides, the “arthritic score (mean+/−standard error)” value in data set [2] (methylene chloride 100 mg/kg/day p.o., end of study (day 28)) is given as 3.8+/−1.0. Also, the arthritic score in data set [2] (methylene chloride 500 mg/kg/day p.o., end of study (day 28)) was 2.75.
For the molecule `[C-]#[O+]` [CO, carbon monoxide], the “HO-1 protein expression in liver samples (ELISA)” value with HO-1 [3] is listed as 7.51±2.13 ng of HO-1/mg lysate. In addition, the “Banff score of I/R injury” value in the data set on rat liver (1 h reperfusion) is recorded as 1.2±0.31; in the data set on rat liver (2 h reperfusion), 2.0±0.12. Also, the “HO-1 protein accentuated (Western blot) vs air alone” value with HO-1 [4] is reported as “ca. 3 fold”.

The values above are taken from patent US20040143025A1, “Carbon monoxide generating compunds for treatment of vascular, inflammatory and immune disorders” (priority 2002, published 2004).
